Reference: US10986838B2, “Herbicides” (SYNGENTA PARTICIPATIONS AG, priority 2016, dated 2021)

How the values were obtained:
Type in all cases: in vivo
Avena fatua (AVEFA) [1] = test: Pre-emergence herbicidal activity (B1); conditions: Test 1a, 1000 g/ha, evaluated after 13 days, 5=total damage to plant, 0=no damage to plant
Summary of the method: (§1)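 After one day of cultivation, soil pots were treated pre-emergence by spray with active ingredient in acetone/water (50:50) and 0.5% Tween 20. Evaluation at 13 days used a 0–5 scale, where 5 meant total plant damage.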

[2] = test system: Alopecurus myosuroides (ALOMY); test: Pre-emergence herbicidal activity (B1); conditions: Test 1a, 1000 g/ha, evaluated after 13 days, 5=total damage to plant, 0=no damage to plant
Summary of the method: as §1

[3] = test system: Triticum aestivium (TRZAW); test: Pre-emergence herbicidal activity (B1); conditions: Test 1a, 1000 g/ha, evaluated after 13 days, 5=total damage to plant, 0=no damage to plant
Summary of the method: as §1

Lolium perenne (LOLPE) [4] = test: Pre-emergence herbicidal activity (B1); conditions: Test 1a, 1000 g/ha, evaluated after 13 days, 5=total damage to plant, 0=no damage to plant
Summary of the method: as §1

[5] = test system: Echinochloa crus-galli (ECHCG); test: Pre-emergence herbicidal activity (B1); conditions: Test 1a, 1000 g/ha, evaluated after 13 days, 5=total damage to plant, 0=no damage to plant
Summary of the method: as §1

Setaria faberi (SETFA) [6] = test: Pre-emergence herbicidal activity (B1); conditions: Test 1a, 1000 g/ha, evaluated after 13 days, 5=total damage to plant, 0=no damage to plant
Summary of the method: as §1

Avena fatua (AVEFA) [7] = test: Post-emergence herbicidal activity (B2); conditions: Test B2a, 1000 g/ha, evaluated after 13 days, 5=total damage to plant, 0=no damage to plant
Summary of the method: (§2)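 Plants grown for 8 days in a glasshouse (24/16 °C day/night, 14 h light, 65% humidity) were sprayed post-emergence with compound formulated in acetone/water 50:50 containing 0.5% Tween 20. Damage was scored 13 days later on a 0–5 scale (5 = total damage).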

[8] = test system: Alopecurus myosuroides (ALOMY); test: Post-emergence herbicidal activity (B2); conditions: Test B2a, 1000 g/ha, evaluated after 13 days, 5=total damage to plant, 0=no damage to plant
Summary of the method: as §2

[9] = test system: Triticum aestivium (TRZAW); test: Post-emergence herbicidal activity (B2); conditions: Test B2a, 1000 g/ha, evaluated after 13 days, 5=total damage to plant, 0=no damage to plant
Summary of the method: as §2

Lolium perenne (LOLPE) [10] = test: Post-emergence herbicidal activity (B2); conditions: Test B2a, 1000 g/ha, evaluated after 13 days, 5=total damage to plant, 0=no damage to plant
Summary of the method: as §2

[11] = test system: Echinochloa crus-galli (ECHCG); test: Post-emergence herbicidal activity (B2); conditions: Test B2a, 1000 g/ha, evaluated after 13 days, 5=total damage to plant, 0=no damage to plant
Summary of the method: as §2

Setaria faberi (SETFA) [12] = test: Post-emergence herbicidal activity (B2); conditions: Test B2a, 1000 g/ha, evaluated after 13 days, 5=total damage to plant, 0=no damage to plant
Summary of the method: as §2

| Structure (SMILES) | AVEFA damage score (Avena fatua (AVEFA) [1]) | ALOMY damage score [2] | TRAZW damage score [3] | LOLPE damage score (Lolium perenne (LOLPE) [4]) | ECHCG damage score [5] | SETFA damage score (Setaria faberi (SETFA) [6]) | AVEFA damage score (Avena fatua (AVEFA) [7]) | ALOMY damage score [8] | TRAZW damage score [9] | LOLPE damage score (Lolium perenne (LOLPE) [10]) | ECHCG damage score [11] | SETFA damage score (Setaria faberi (SETFA) [12]) |
| --- | --- | --- | --- | --- | --- | --- | --- | --- | --- | --- | --- | --- |
| Nc1ccc(-c2cncc(F)c2)nc1-c1ccccc1 [Compound A50] | 0 | 0 | 0 | 0 | 1 | 1 | 0 | 0 | 0 | 0 | 1 | 2 |
| CCCNc1ccc(-c2cncc(F)c2)nc1C(F)(F)F [Compound A47] | 1 | 0 | 0 | 1 | 3 | 4 | 2 | 0 | 2 | 2 | 4 | 5 |
| CNc1ccc(-c2cncc(C#N)c2)nc1C(F)(F)F [Compound A1] | 1 | 0 | 0 | 1 | 1 | 4 | 3 | 0 | 2 | 2 | 3 | 5 |
| CN(C)c1ccc(-c2cncc(F)c2)nc1C(F)(F)F [Compound A38, 6-(5-fluoro-3-pyridyl)-N,N-dimethyl-2-(trifluoromethyl)pyridin-3-amine] | 2 | 0 | 0 | 0 | 5 | 5 | 4 | 1 | 1 | 2 | 5 | 5 |
| COC(=O)c1nc(-c2cncc(F)c2)ccc1N [Compound A41] | 0 | 0 | 0 | 0 | 2 | 2 | 1 | 0 | 0 | 0 | 2 | 2 |
| Fc1cncc(-c2ccc(NCc3cnco3)c(C(F)(F)F)n2)c1 [Compound A60] | 3 | 0 | 0 | 1 | 5 | 5 | 3 | 1 | 2 | 4 | 5 | 5 |
| Fc1cncc(-c2ccc(NCc3nccs3)c(C(F)(F)F)n2)c1 [Compound A56] | 2 | 0 | 1 | 1 | 4 | 5 | 4 | 1 | 1 | 3 | 5 | 5 |
| Fc1cncc(-c2ccc(NC3CC3)c(C(F)(F)F)n2)c1 [Compound A46] | 1 | 0 | 0 | 0 | 2 | 4 | 3 | 1 | 1 | 2 | 4 | 4 |
| COc1nc(-c2cncc(F)c2)ccc1N [Compound A43] | 0 | 0 | 0 | 1 | 0 | 1 | 1 | 0 | 0 | 1 | 1 | 2 |
| Fc1cncc(-c2ccc(N3CCCC3)c(C(F)(F)F)n2)c1 [Compound A40] | 1 | 1 | 0 | 1 | 4 | 4 | 3 | 0 | 0 | 2 | 5 | 5 |
| N#Cc1nc(-c2cncnc2)ccc1N [Compound A44] | 1 | 0 | 0 | 2 | 3 | 5 | 2 | 0 | 0 | 1 | 3 | 4 |
| Fc1cncc(-c2ccc(N3CCC3)c(C(F)(F)F)n2)c1 [Compound A63] | 0 | 0 | 0 | 0 | 2 | 5 | 3 | 0 | 0 | 2 | 3 | 5 |
| Fc1cncc(-c2ccc(N3CCOCC3)c(C(F)(F)F)n2)c1 [Compound A39, 4-[6-(5-fluoro-3-pyridyl)-2-(trifluoromethyl)-3-pyridyl]morpholine] | 0 | 0 | 0 | 0 | 3 | 3 | 2 | 0 | 0 | 2 | 4 | 4 |
| Fc1cncc(-c2ccc(NCC3CCC3)c(C(F)(F)F)n2)c1 [Compound A51, N-(cyclobutylmethyl)-6-(5-fluoro-3-pyridyl)-2-(trifluoromethyl)pyridin-3-amine] | 1 | 1 | 1 | 1 | 5 | 5 | 4 | 1 | 2 | 3 | 5 | 4 |
| Nc1ccc(-c2cncc(Cl)c2)nc1C(F)(F)F [Compound A3] | 1 | 0 | 0 | 1 | 3 | 5 | 3 | 1 | 0 | 2 | 3 | 4 |
| Cn1ccc(CNc2ccc(-c3cncc(F)c3)nc2C(F)(F)F)n1 [Compound A59] | 3 | 0 | 0 | 1 | 4 | 5 | 3 | 1 | 2 | 3 | 5 | 5 |
| CCCN(CCC)c1ccc(-c2cncc(F)c2)nc1C(F)(F)F [Compound A48] | 0 | 0 | 0 | 0 | 4 | 4 | 3 | 0 | 1 | 2 | 4 | 5 |
| CCCCCNc1ccc(-c2cncc(F)c2)nc1C(F)(F)F [Compound A54] | 1 | 0 | 0 | 1 | 3 | 5 | 3 | 0 | 0 | 2 | 3 | 5 |
| CCCCCCNc1ccc(-c2cncc(F)c2)nc1C(F)(F)F [Compound A42] | 2 | 0 | 0 | 1 | 4 | 5 | 3 | 1 | 1 | 2 | 5 | 5 |
